Paper PMC11519910, “Semisynthetic Ecdysteroid Cinnamate Esters and tert-Butyl Oxime Ether Derivatives with Trypanocidal Activity” (Journal of Natural Products, 2024)
Where two headings read alike, the source gives them in different places.

Key:
T. cruzi = tested on: T. cruzi; parameters: method as in PMID 30517542; conditions: free acid forms; read-out: IC50, antitrypanosomal activity; cited from earlier work
T. cruzi epimastigotes = test: Trypanocidal activity against epimastigotes (XTT); assay type: cell-based, Trypanosoma cruzi; conditions: for inhibition at 5 µM: read-out: inhibition of epimastigote proliferation; for IC50: 72 h incubation, read-out: IC50, epimastigote proliferation
Protocol: Trypanocidal activity against epimastigotes was assessed by XTT (2,3-bis(2-methoxy-4-nitro-5-sulfophenyl)-2H-tetrazolium-5-carboxanilide). Briefly, 1.5 × 10^6 epimastigotes were seeded per well in 96-well plates. The ecdysteroid was added at 8 concentrations ranging from 25 to 0.2 μM for 72 h at 28 °C. […] Following the incubation period, the plates were examined under the microscope for sterility and growth of controls. To the plates, 50 μL of XTT and PMS (phenazine methosulfate, Sigma-Aldrich, MO, USA) solution (XTT and PMS at 0.5 and 0.025 mg/mL, respectively) was added, and the plates were then incubated at 28 °C for 3 h. The parasites were fixed by the addition of 50 μL of MeOH for 15 min before the absorbance was measured at 490 nm on a Tecan plate reader. Results were expressed as percentage cell viability relative to the vehicle control or IC50 values calculated by GraphPad Prism version 8.0. All assessments were performed in triplicates in three independent experiments.

RAW264.7 cells = test: cells; assay type: cell-based
Protocol: Cytotoxicity or antiproliferative effects of ecdysteroid against mammalian cells was assessed using MTT (3-(4,5-dimethylthiazol-2-yl)-2,5-diphenyltetrazolium bromide). CHO or RAW264.7 cells were used for screening the compounds. Briefly, the cells were seeded at a density of 2000/well in 96-well plates. After 24 h of incubation at 37 °C and 5% CO2, ecdysteroid ([…]) was added to the cells at various concentrations. In all the experiments, podophyllotoxin was used as the positive control. In all experiments, vehicle controls were included, and the final DMSO concentration was below 0.5%. After 72 h, the plates were examined under an inverted microscope for sterility and growth of controls after the incubation period. The spent medium was removed, and 100 μL of fresh medium containing 0.5 mg/mL of the final concentration of MTT was added to the cells. The plates were incubated for 4 h at 37 °C in 5% CO2. The formazan crystals were solubilized by adding 200 μL of DMSO and mixed thoroughly. The absorbance was determined at 550 nm by using a Tecan plate reader. The values were corrected to the blank medium and vehicle control (DMSO only). Results were expressed as percentage cell viability relative to the vehicle control. Each assay was performed in technical triplicate in three independent experiments.

[1] = tested on: T. cruzi (GFPY parasite release in trypomastigote-infected RAW264.7 cells); test: FACS-based quantitation of released parasites from infected RAW264.7 cells; assay type: cell-based, Trypanosoma cruzi
Protocol: The host RAW264.7 cells were seeded in 24-well plates at a density of 20,000 cells/mL. The cells were allowed to adhere for 24 h and infected with trypomastigotes at a multiplicity of 10. On the next day, noninternalized trypomastigotes were washed away, and fresh RPMI with 2% hiFBS was added to the wells along with the C44 at various concentrations. […] Three independent experiments in triplicates were performed to determine the activity of the ecdysteroid.

[2] = tested on: T. cruzi amastigotes in CCL39 fibroblasts; test: Fluorescence microscopy of amastigote replication in infected CCL39 fibroblasts; assay type: cell-based, Trypanosoma cruzi; conditions: 5 μM, of infection
Protocol: The host CCL39 cells were seeded in 24-well plates at a density of 20,000 cells/mL. The cells were allowed to adhere for 24 h and infected with trypomastigotes at a multiplicity of 10. On the next day, non-internalized trypomastigotes were washed away, and fresh RPMI with 2% hiFBS was added to the wells along with the test substance. […] The images were analyzed on ImageJ.

SMILES | IC50 (T. cruzi) [µM] | inhibition at 5 µM (T. cruzi epimastigotes; Trypanosoma cruzi, 72 h) [%] | other results
COc1ccc(/C=C/C(=O)O)c(OC)c1 [trans-2,4-dimethoxycinnamic acid] | > 600 |  | 
CC(C)(O)CC[C@@H](OC(=O)/C=C/c1ccccc1)[C@](C)(O)[C@H]1CC[C@@]2(O)C3=CC(=O)[C@@H]4C[C@@H](O)[C@@H](OC(=O)/C=C/c5ccccc5)C[C@]4(C)[C@H]3CC[C@]12C [Compound 40] |  | ≥ 30 | 
CC(C)(O)CC[C@@H](O)[C@](C)(O)[C@H]1CC=C2C3=C/C(=N\OC(C)(C)C)[C@@H]4C[C@@H](O)[C@@H](O)C[C@]4(C)[C@H]3CC[C@@]21C [Compound 42] |  | < 30 | 
CC(C)(O)CC[C@H]1OC(C)(C)O[C@]1(C)[C@H]1CC=C2C3=C/C(=N/OC(C)(C)C)[C@@H]4C[C@H]5OC(C)(C)O[C@H]5C[C@]4(C)[C@H]3CC[C@@]21C [Compound 28] |  | ≥ 30 | 
CC(C)(O)CC[C@@H](O)[C@](C)(O)[C@H]1CC=C2C3=C/C(=N/OC(C)(C)C)[C@@H]4C[C@@H](O)[C@@H](O)C[C@]4(C)[C@H]3CC[C@@]21C [Compound 43] |  | < 30 | 
COc1cc(C=CC(=O)O)cc(OC)c1OC [3,4,5-trimethoxycinnamic acid] | > 600 |  | 
CC(C)(O)CC[C@H]1OC(C)(C)O[C@]1(C)[C@H]1CC[C@@]2(O)C3=C/C(=N\OC(C)(C)C)[C@@H]4C[C@H]5OC(C)(C)O[C@H]5C[C@]4(C)[C@H]3CC[C@]12C [Compound 24] |  | ≥ 30 | 
CC(C)(O)CC[C@@H](OC(=O)/C=C/c1ccccc1)[C@](C)(O)[C@H]1CC[C@@]2(O)C3=CC(=O)[C@@H]4C[C@@H](OC(=O)/C=C/c5ccccc5)[C@@H](O)C[C@]4(C)[C@H]3CC[C@]12C [Compound 39] |  | ≥ 30 | 
COc1ccc(C=CC(=O)O)cc1 [4-methoxycinnamic acid (p-coumaric acid), 4-methoxycinnamic acid] | > 600 |  | 
CC(C)(O)CC[C@@H](O)[C@](C)(O)[C@H]1CC=C2C3=C/C(=N\OC(C)(C)C)[C@@H]4C[C@@H](O)[C@@H](OC(=O)/C=C/c5ccccc5)C[C@]4(C)[C@H]3CC[C@@]21C [Compound 44] |  |  | IC50 (T. cruzi epimastigotes): 1.7 ± 0.2 µM; IC50 (T. cruzi epimastigotes; Trypanosoma cruzi, 72 h): < 2 µM; cytotoxicity on the host cells (RAW264.7 cells): moderate cytotoxicity; IC50 (RAW264.7 cells; Mus musculus, RAW264.7, MTT, 72 h of incubation, read-out: IC50, cell proliferation in RAW264.7 cells): 11.6 ± 1.6 µM; selectivity, T. cruzi over RAW264.7 host macrophages (RAW264.7 cells; apparent selectivity, cytotoxicity toward T. cruzi vs host cells): more than 5 fold; IC50 ([1]; Trypanosoma cruzi, 144 h, trypomastigote-infected RAW264.7 cells, FACS after 6 days): 2.7 ± 0.1 µM; inhibition of trypomastigote release ([1]; infected RAW264.7 cells): more than 95%; inhibition of amastigote replication [2]: efficiently inhibits amastigote replication
